Results from US12344584B2, “KCNQ potentiators” (Eli Lilly and Company, priority 2019, dated 2025).
Like-named read-outs stand apart in the source and are kept apart here.

What was measured:
[1] = system: motor neurons derived from ALS patient iPSC line with pathogenic repeat expansion mutation in C9orf72; test: Optopatch excitability assay in motor neurons derived from ALS patient iPSC line (C9orf72 repeat expansion); assay type: cell-based; details: Homo sapiens, read-out: EC50, inhibition of excitability (action potential frequency)
From the text: Optopatch Excitability Assay for Example 1 in Motor Neurons Derived From ALS Patient iPSC Lines
Altered excitability of cortical neurons and lower motor neuron is an important factor in the pathophysiology of ALS (See, for example, K. Kanai, et. al., J Neurol Neurosurg Psychiatry, 83, 734-738 (2012); P. Menon, et. al., Eur Neurol., 24, 816-824 (2017)). All-optical electrophysiology (“Optopatch”) was used to evaluate excitability in cultured motor neurons derived from iPSC lines from two ALS patients with different pathogenic mutations.
Cell Culture: The two iPSC lines are derived from one patient with a pathogenic mutation in TARDBP and one patient with a pathogenic repeat expansion mutation in C9orf72, respectively. Motor neurons are generated from these lines by a 2D differentiation method adapted from the dual SMAD inhibition neuronal patterning protocol (See S. M. Chambers, et. al., Nat Biotechnol., 27, 275-280 (2009)) by inclusion of motor neuron morphogens. Differentiation is verified by visual inspection, karyotyping and staining for beta-III-tubulin and the nuclear motor neuron marker ISL1. Neurons are cultured on a monolayer of mouse glia in mTeSR (Stem Cell Technologies), supplemented with 10 ng/mL BDNF. Forty-eight hours prior to imaging, 100 nM trans-retinal was added to the medium.
Transduction with Optopatch vectors: At 15 days in vitro, cultured motor neurons are transduced with a lentiviral vector to drive the co-expression of the actuator CheRiff-mOrange2 and the voltage indicator QuasAr3-Citrine (for details see D. R. Hochbaum, et. al., Nat. Methods, 11, 825-833 (2014)). Forty-eight hours prior to imaging, 100 nM trans-retinal was added to the medium.
Solutions: Recordings are performed in Brainphys™ imaging buffer with 3 mM potassium. […]
Optopatch Recordings: Five days after transduction, Optopatch imaging is performed on a custom, ultra-widefield fluorescence microscope at RT. Motor neurons are illuminated with red laser excitation (200 W/cm^2; 635 nm) to monitor changes in QuasAr fluorescence and blue LED excitation (0-127 mW/cm^2, 470 nm) to depolarize the cell membrane with CheRiff. […] Optopatch data are recorded using a Hamamatsu ORCA-Flash 4.0 sCMOS camera with a 1 kHz frame rate. […]
Data Analysis: Image segmentation analysis is performed using temporal Principle Component Analysis and spatial-temporal Independent Component Analysis to isolate individual neurons. A spike-finding algorithm is used to find action potentials, and data are analyzed for compound effects on mean firing rate, adaptation, rheobase and action potential waveform shape by comparing to vehicle controls (for detail, see C. A. Werley, et. al., Curr. Protoc. Pharmacol., 78, 11.20.1-11.20.24. (2017)). […]

peripheral axons = test: Threshold tracking of peripheral nerve excitability in anesthetized rats; assay type: in vivo; details: rat
Protocol: Threshold Tracking to Measure the Effects of Example 1 at 3.10 and 30 mg/kg IP on Peripheral Nerve Excitability
Threshold tracking is a non-invasive technique that allows measurement of the excitability properties of peripheral axons by providing information about their membrane potential and ion channel function.
16 male Wistar rats from Charles River, weighing between 307-446 g ware used. Animals are group housed with standard housing conditions (4 per cage, 07:00 h to 19:00 h light phase, constant temperature (21° C.) and humidity, and free access to food and water, as well as environmental enrichment).
Rats are anesthetized with isoflurane (2-2.5%, O2 at 0.5 L/min) and then placed on their back on a heating pad to keep the tail temperature above 32° C. The placement of the ring electrodes are marked out and the marked sections of the tail are scraped with a blade to remove hair and the top layer of skin. The sites are cleaned with water and dried, allowing fora good conduction between the skin and the sticky electrodes.
A sticky ring stimulating electrode (+ve anode) is wrapped around the foot. A second sticky ring stimulating electrode (−ve cathode) is wrapped 1.5 cm from the base of the tail. A needle recording electrode is placed just off center on the top of the tail, 6 cm distal to the stimulating cathode at the base of the tail. A needle reference electrode is placed just off center on the top of the tail, 2 cm distal to the recording electrode. A sticky ground electrode is wrapped around the tail 2 cm proximal from the recording electrode.
• Start the Multitrack program (description below) and Spike. • Record 15 min of stable baseline • After the 15 min, dose with Example 1 or HEC • Take blood spot for PK at the following: • 10 min post dose • 20 min post dose • 30 min post dose • 40 min post dose • 45 min after IP (intraperitoneal) dosing with Example 1, dose XE-991 (XE-991 is a commercially available compound that blocks KCNQ potentiator effects in a formalin assay in vivo—see Y. Zheng, et al., “Activation of peripheral KCNQ channels relieves gout pain,” Pain, 156 (2015) 1025-1035; and R. Zaczek, et al., “Two New Potent Neurotransmitter Release Enhancers, 10,10-Bis(4-Pyridinylmethyl)-9(10H)-Anthracenone and 10,10-Bis(2-Fluoro-4-Pyridinylmethyl)-9(10H)-Anthracenone: Comparison to Linopirdine” The Journal of Pharmacology and Experimental Therapeutics, 285:724-730, 1998. • (XE-991 is only dosed after Example 1 at 30 mg/kg) • Take blood spot for PK at the following: • 10 min post dose (55 min post Example 1 administration) • 20 min post dose (65 min post Example 1 administration) • 30 min post dose (75 min post Example 1 administration) • 40 min post dose (85 min post Example 1 administration)
In threshold tracking assay to measure the excitability properties of peripheral axons studies in rat, compound is administered by IP at 3, 10 or 30 mg/kg using 1% hydroxyethylcellulose: 0.25% polysorbate 80:0.05% antifoam:purified water (HEC) formulation. Dry blood spots (DBS) are collected around 10, 20, 30 and terminal 40 min post-dose. DBS samples are dried at RT for around 2 h. Brain samples are obtained at terminal time point and frozen until analysis. DBS samples are shipped and stored at RT.

EC50 ([1]; Diff 1, blue LED 5.1 mW/cm^2, mean): 170 nM | EC50 ([1]; Diff 2, blue LED 5.1 mW/cm^2, mean): 200 nM
Structure (SMILES): CC(C)(C)[C@H](O)CNC(=O)NCc1ccnc(OCC(F)(F)F)c1 [Example 1, 1-[(2S)-2-hydroxy-3,3-dimethyl-butyl]-3-[[2-(2,2,2-trifluoroethoxy)-4-pyridyl]methyl]urea]
Threshold Tracking absolute threshold for 40% CMAP (±SEM) (peripheral axons; 3 mg/kg (IP)): 121 (±10) % baseline | Threshold Tracking absolute threshold for 40% CMAP (±SEM) (peripheral axons; 10 mg/kg (IP)): 140 (±8) % baseline | Threshold Tracking absolute threshold for 40% CMAP (±SEM) (peripheral axons; 30 mg/kg (IP)): 160 (±18) % baseline | absolute threshold compared with vehicle (peripheral axons; 30 mg/kg IP, Bonferroni multiple comparisons test): significantly increased absolute threshold
